Measured values taken from patent US20170046476A1, “SYSTEMS, APPARATUS, AND METHODS FOR ANALYZING AND PREDICTING CELLULAR PATHWAYS” (priority 2015, published 2017).

Tested on: STHdh Q111 cells
Test: Multiparameter high content imaging for the analysis of cell apoptosis (calcein-AM / propidium iodide / Hoechst)
Format: cell-based, mouse
Conditions: for apoptosis / percentage of dead cells (propidium iodide-positive cells): STHdh Q111 cells treated with FTY720-P vs untreated (vehicle), 24 hours, serum-free medium, P-value=7.98×10^−5, two-sided student t-test, two independent experiments, twenty replicates each
From the text: FIG. 16B is a bar plot comparing percentages of dead cells in STHdh Q111 cells not treated with an analogue of S1P (FTY720-P) to STHdh Q111 cells treated with FTY720-P in accordance with some embodiments. […] In contrast, this approach inferred the underlying network of sphingolipid dysregulation and the role of S1P in diseased cells without any prior assumptions.
FIG. 17 is a series of images illustrating cell viability, morphology, and shape in accordance with some embodiments. Images 1702, 1704, and 1706 show STHdh Q7 cells, STHdh Q111 cells, and STHdh Q111 cells treated with FTY720-P, respectively, following treatment with calcein to detect viable cells and monitor changes in cell shape and morphology. Images 1708, 1710, and 1712 show STHdh Q7 cells, STHdh Q111 cells, and STHdh Q111 cells treated with FTY720-P, respectively, following treatment with propidium iodide, which stains late apoptotic cells with damaged membranes. As shown, hidden components inferred by using the described approach rescue diseased cells.
According to some embodiments, STHdhQ7/Q7 and STHdhQ111/Q111 striatal cells were trypsinized, harvested in pre-warmed growth medium and quantified using an automated cell counter (available from, e.g., Countess II, Life Technologies). Six thousand cells per well were seeded in sterile, black 96-well microplates with flat, clear bottom. After 24 hours, the complete medium was removed and replaced with phenol red- and serum-free medium containing either FTY720 phosphate (available from Sigma-Aldrich) or vehicle (e.g., DMSO, available from Sigma-Aldrich) and cells were incubated for 24 hours at 33° C. A multiple staining solution containing 1 μg/ml calcein-AM, 2 μg/ml propidium iodide and 1.5 μg/ml […] (all available from Life Technologies) was added to detect and quantify live, dead, and total cells, respectively. After 20 minutes in incubation, a Cellomics Arrayscan Platform (available from Thermo Scientific) was used for imaging acquisition. […] Cell loss was expressed as the percentage of propidium iodide-positive cells. […]

Substance: FTY720 phosphate [FTY720-P]
- apoptosis / percentage of dead cells (propidium iodide-positive cells): significantly decreasing apoptosis
- apoptosis / percentage of dead cells (propidium iodide-positive cells) (listed as Phosphorylated FTY720): significantly decrease apoptosis
- effect of treating diseased cells (neuroprotection) (STHdh cell line model of Huntington's disease, summary statement): neuroprotective effects
